According to paper PMC10783087 (Microbiology Spectrum, 2023):
In brackets after ≈: the same amount, converted by molar mass. Several values for one entry are separate records, joined by “and”; a condition that tells them apart may be missing. Equal values may be shown once. Read-outs that look alike come from different tables or passages of the source.

What was measured:
[1] = system: Erdman; assay: microbe, parasite or virus in culture; assay type: cell-based; conditions: Mycobacterium tuberculosis
[2] = system: M. avium ATC 700891 (MAC 101); assay: In vitro MIC against NTM, microbroth dilution; assay type: cell-based; conditions: 7 days; for MIC: Mycobacterium avium, 168 h
[3] = system: primary bone marrow-derived macrophages (BMMΦ); conditions: for S.I. (CC50 / EC50): BMMΦ CC50 / ex vivo EC50, Table S1; for Si (CC50/EC50): macrophage CC50 / in vitro Mtb EC50
[4] = system: Mtb CDC1551 FFluc reporter strain in primary bone marrow-derived macrophages; assay: microbe, parasite or virus in culture; assay type: cell-based; conditions: Mycobacterium tuberculosis, Macrophage; for EC90: read-out: ex vivo EC90
[5] = assay type: in vivo, female C57Bl/6 mice; conditions: 200 mg/kg oral in corn oil
Method: Female C57Bl/6 mice were dosed with 200 mg/kg (based on the average body mass of 27 mice) of MSU-43085, MSU-43165, or MSU-43170 formulated in corn oil by oral gavage. At 1-, 2-, and 4-h post treatment, blood samples were taken from three mice from each treatment group by cardiac puncture and placed in BD Lithium HeparinN Vacutainer tubes. Plasma was separated from whole blood by centrifuge, and compounds were methanol extracted. Lungs were harvested from mice 4- h post treatment. Lung samples were homogenized using a closed tissue grinder system (Fisherbrand—02-542-09), and compounds were methanol extracted from lung homogenates. Methanol-extracted samples were quantified by UPLC/MS/MS.

[6] = system: Mtb; assay: microbe, parasite or virus in culture; assay type: cell-based, Mycobacterium tuberculosis; conditions: for EC50: read-out: In vitro EC50; for EC90: read-out: In vitro EC90
[7] = physchem; assay type: physicochemical; conditions: kinetic from dmso stock
Method: The kinetic solubility assay was conducted as previously described ([18]). Briefly, using methods described by Bevan and Lloyd ([56]), the assay was performed with 7-point (twofold) dilutions of the compounds, from 200 to 3.125 μM along with mebendazole, bexarotene, and aspirin as controls. The drug dilutions were added to PBS, pH 7.4, with a DMSO concentration of 1% (final), and incubated at 37°C for 2 h. The absorbance at 620 nm was measured for each drug dilution to estimate the solubility of the compound in triplicate/ dilution.

[8] = assay type: in vitro ADME, mouse
Method: The mouse microsomal stability assay was conducted as described by Obach ([57]), and the results are presented as the percentages remaining after 30 min. Values greater than 100% are likely due to changes in the solubility of the compounds over the course of the assay and represent high stability in microsomes.

[9] = in vitro; conditions: mouse
[10] = system: H37Rv (ΔkatG); assay type: cell-based
[11] = system: H37Rv; assay: microbe, parasite or virus in culture; assay type: cell-based; conditions: Mycobacterium tuberculosis
[12] = system: M. abscessus ATCC 19977; assay: In vitro MIC against NTM, microbroth dilution; assay type: cell-based; conditions: 7 days
[13] = system: Mtb CDC1551 FFluc reporter strain in primary bone marrow-derived macrophages; parameters: method as in PMID 31405862; conditions: earlier report; read-out: EC50 against intracellular Mtb; cited from earlier work
[14] = system: primary bone marrow-derived macrophages (BMMΦ); conditions: earlier report; cited from earlier work
[15] = system: Mtb; conditions: earlier report; read-out: EC50 against Mtb in vitro; cited from earlier work
[16] = system: Mtb; conditions: cited from earlier work
[17] = in vitro; assay type: cell-based; conditions: human, 24 h treatment
Method: For additional cell lines including HepG2, HeLa, and THP-1, the following protocol was used. HepG2 (ATCC HB-8065) and HeLa (ATCC CCL-2) were cultured in cEMEM supplemented with 10% (vol/vol)/FBS and 1%(vol/vol) PenStrep. THP-1 cells were cultured in cRPMI-1640 medium (ATCC 30-2001) supplanted with 10% (vol/vol) FBS and 0.05 mM 2-mercaptoethanol (Sigma M3148). THP-1 cells were seeded in 96 well plates at 1 × 10^5 cells/mL with complete medium. HepG2 and HeLa cells were seeded in 96 well plates with cEMEM at 1 × 10^6 cells/mL. Cells were treated with compounds by dose response in a range of 128–0.48 µg/mL in triplicate or mitomycin C at a range of 128–0.0625 µM. Cells were treated for 24 h at 37°C with 5% CO2. Cells were then treated with either MTT or resazurin for 4 h. Absorbance was then measured at 570 nm for MTT plates. Percent cytotoxicity was calculated relative to positive mitomycin C and untreated controls. Percent cytotoxicity was used to calculate the IC50 using Graphpad prism software using non-linear regression analysis.

[18] = system: Mtb Erdman; assay type: in vivo, Mycobacterium tuberculosis; conditions: for median lung bacterial burden: C57Bl/6 mice, oral gavage 2 weeks; for median lung bacterial burden / colonies in spleens (dissemination): INH 25 mg/kg, MSU compounds 200 mg/kg
[19] = system: MAB; conditions: at 20 µM; cited from earlier work
[20] = intracellular Mtb in BMMΦ, Table S1
[21] = read-out: intra-macrophage EC50
[22] = Mycobacterium tuberculosis, 144 h
[23] = 37 °C, aqueous buffer, PBS pH 7.4, read-out: Kinetic solubility pH 7.4
[24] = aqueous buffer, PBS pH 2.0, read-out: Kinetic solubility pH 2.0
[25] = Table S5, % remaining after 30 minutes with mouse microsomes
[26] = mouse microsomes, % remaining after 30 min
[27] = Mycobacteroides abscessus, ATCC19977, 168 h
[28] = 37 °C, pH 2, aqueous buffer, Table S5, read-out: Kinetic solubility at pH 2.0
[29] = 37 °C, pH 7.4, aqueous buffer, Table S5, read-out: Kinetic solubility at pH 7.4
[30] = read-out: HeLa Cytotoxicity (IC50)
[31] = read-out: HepG2 Cytotoxicity (IC50)
[32] = read-out: THP-1 Cytotoxicity (IC50)
[33] = intracellular Mtb in BMMΦ, Table S1, read-out: ex vivo EC50

## CC(C)/N=c1\cc2n(-c3ccc(Cl)cc3)c3ccccc3nc-2cc1Nc1ccc(Cl)cc1 [Clofazimine]
[1]
  EC50: 0.3 µM

## CO[C@H]1/C=C/O[C@@]2(C)Oc3c(C)c(O)c4c(O)c(c(/C=N/N5CCN(C)CC5)c(O)c4c3C2=O)NC(=O)/C(C)=C\C=C\[C@H](C)[C@H](O)[C@@H](C)[C@@H](O)[C@@H](C)[C@H](OC(C)=O)[C@@H]1C [Rifampicin]
[2]
  MIC: 0.07 µM (≈ 0.0576 µg/mL)

## CC(C)N(C(=O)COc1nc2cc(Cl)c(Cl)cc2[nH]1)C(C)C [MSU-43170]
[3]
  S.I. (CC50 / EC50): > 2285
  Si (CC50/EC50): >667
[4]; [20]
  EC90: 0.14 µM
[4]; [21]
  EC50: 0.035 µM
[5]; 2 h time point (1 h unavailable)
  Blood plasma concentration (2 h, fold EC50): 4 fold EC50 and 4× ^ a fold EC50
[6]; [22]
  EC50: 0.116 µM
  EC90: 0.263 µM
[6]
  EC50: 0.12 µM
  EC90: 0.26 µM
[7]; [23]
  solubility kinetic: > 50 µM
[7]; [24]
  solubility kinetic: > 300 µM
[8]; [25]
  Microsome Stability: 95%
[8]; [26]
  Microsome Stability: 95%
[9]
  CC50: > 80 µM

## COc1c(N2C[C@@H]3CCCN[C@@H]3C2)c(F)cc2c(=O)c(C(=O)O)cn(C3CC3)c12 [Moxifloxacin]
[10]
  MIC, H37Rv (ΔkatG): 0.15 µM (≈ 0.0602 µg/mL)
[11]; read-out: MIC, H37Rv
  MIC: 0.15 µM

## NCC[C@H](O)C(=O)N[C@@H]1C[C@H](N)[C@@H](O[C@H]2O[C@H](CN)[C@@H](O)[C@H](O)[C@H]2O)[C@H](O)[C@H]1O[C@H]1O[C@H](CO)[C@@H](O)[C@H](N)[C@H]1O [Amikacin]
[12]
  MIC: 6.8 µM (≈ 3.98 µg/mL)
[12]; [27]
  MIC: 6.8 µM (≈ 3.98 µg/mL)

## Cc1ccc2nc(SCC(=O)N(C(C)C)C(C)C)[nH]c2c1 [HC2183]
[3]
  Si (CC50/EC50): >11
[13]
  EC50: 3 µM
[14]
  cytotoxicity in macrophages: no detectable cytotoxicity
[15]
  EC50: 3.2 µM
[6]; [22]
  EC50: 7.3 µM
  EC90: 16 µM
[7]; [28]
  solubility kinetic: > 300 µM
[7]; [29]
  solubility kinetic: > 200 µM
[8]; [25]
  Microsome Stability: 25%
[9]
  CC50: > 80 µM

## CC1(C)CCC(NC(=O)c2cc3c(F)cc(F)cc3[nH]2)CC1 [NITD-349]
[16]
  MIC: 0.03 µM (≈ 0.00919 µg/mL)

## CO[C@@]12[C@H](COC(N)=O)C3=C(C(=O)C(C)=C(N)C3=O)N1C[C@@H]1N[C@@H]12 [Mitomycin C, reference compound]
[17]; [30]
  IC50: 10.5 µg/mL (≈ 31.5 µM)
[17]; [31]
  IC50: 23 µg/mL (≈ 68.8 µM)
[17]; [32]
  IC50: 3.09 µg/mL (≈ 9.25 µM)

## NNC(=O)c1ccncc1 [Isoniazid]
[10]
  MIC, H37Rv (ΔkatG): >14.5 µM
[18]
  median lung bacterial burden: no colonies were isolated
  colonies in spleens (dissemination): no colonies were isolated
[11]; read-out: MIC, H37Rv
  MIC: 0.2 µM

## CC1(C)CCC(NC(=O)c2cc3c(Cl)cc(Cl)cc3[nH]2)CC1 [NITD-304]
[16]
  MIC: 0.02 µM (≈ 0.00679 µg/mL)

## CC(C)N(C(=O)CSc1nc2ccc(Cl)cc2[nH]1)C(C)C [HC2099]
[3]
  Si (CC50/EC50): >13
[13]
  EC50: < 0.3 µM
[19]
  inhibition of MAB growth in vitro: 96.5%
[14]
  cytotoxicity in macrophages: no detectable cytotoxicity
[15]
  EC50: 1.7 µM
[6]; [22]
  EC50: 5.9 µM
  EC90: 13.7 µM
[7]; [28]
  solubility kinetic: > 300 µM
[7]; [29]
  solubility kinetic: 178 µM (≈ 58 µg/mL)
[8]; [25]
  Microsome Stability: 71%
[9]
  CC50: > 80 µM

## COc1nc2ccc(Br)cc2cc1[C@@H](c1ccccc1)[C@@](O)(CCN(C)C)c1cccc2ccccc12 [Bedaquiline]
[1]
  EC50: 0.22 µM

## CC(C)N(C(=O)CNc1nc2cc(Cl)c(Cl)cc2[nH]1)C(C)C [MSU-43165]
[3]
  S.I. (CC50 / EC50): > 596.6
  Si (CC50/EC50): >210
[4]; [33]
  EC50: 0.13 µM
[4]; [20]
  EC90: 0.15 µM
[4]; [21]
  EC50: 0.134 µM
[5]; 1 h
  Blood plasma concentration (1 h, fold EC50): 1.3 fold EC50 and 1.3× fold EC50
[18]; 200 mg/kg oral, 2 weeks, not significant (P > 0.99)
  absolute difference of the median lung burden vs vehicle control: 1.6 × 10^4 CFUs/mL
[18]
  median lung bacterial burden: 5.7 × 10^3 CFUs/mL
  colonies in spleens (dissemination): colonies could also be detected
[6]; [22]
  EC50: 0.38 µM
  EC90: 0.628 µM
[6]
  EC90: 0.63 µM
[7]; [23]
  solubility kinetic: > 150 µM
[7]; [24]
  solubility kinetic: > 300 µM
[8]; [25]
  Microsome Stability: 106%
[8]; [26]
  Microsome Stability: 106%
[9]
  CC50: > 80 µM

## Cc1cc2nc(SCC(=O)N(C(C)C)C(C)C)[nH]c2cc1C [MSU-42766]
[3]
  S.I. (CC50 / EC50): > 195.6
  Si (CC50/EC50): >61
[1]
  EC50: 1.3 µM
[4]; [33]
  EC50: 0.41 µM
[4]; [20]
  EC90: 0.97 µM
[2]
  In vitro MIC, M. avium ATC 700891 (MAC 101): no detectable activity
  MIC: > 200 µM
[17]; [30]
  IC50: > 128 µg/mL
[17]; [31]
  IC50: > 128 µg/mL
[17]; [32]
  IC50: 39.6 µg/mL (≈ 124 µM)
[10]
  MIC, H37Rv (ΔkatG): 1.5 µM (≈ 0.479 µg/mL)
[6]; [22]
  EC50: 1.3 µM
  EC90: 8.2 µM
[12]
  MIC: 12 µM (≈ 3.83 µg/mL)
[12]; [27]
  MIC: 12 µM (≈ 3.83 µg/mL)
[9]
  CC50: > 80 µM
[11]; read-out: MIC, H37Rv
  MIC: 1.5 µM
[11]; read-out: activity (MIC) against WT
  MIC: 0.5 µg/mL
